# Source: patent US10045531B2, “Use of one or more fatty acid esters as insecticide and/or arachnicide” (Oleon NV, priority 2014, dated 2018)
# Assays:
# [1] = system: Rhopalosiphum padi; assay: Efficacy on aphids on infested wheat seedlings, spray treatment; assay type: in vivo; settings: sprayed on wheat seedlings
# Protocol: The trial was carried out on wheat infected with aphids.
# Rhopalosiphum padi aphids are reared on wheat in the laboratory. The rearing conditions are as follows: 14 hrs in the light at 18° C., and 10 hrs in darkness at 15° C. at a relative humidity (RH) of 60-70%.
# “Triticum aestivum” wheat of the Apache variety is grown under the following conditions: 14 hrs in the light at 18° C., and 10 hrs in darkness at 15° C. at a relative humidity (RH) of 60-70%. For the experiments, seedlings having reached stage 12 on the BBCH-scale, i.e. 2 leaves, are chosen.
# On D-1, 3 adult aphids are placed on each wheat seedling (approximately 30 seedlings per dose tested). The seedlings are kept for 14 hrs in the light at 18° C., and 10 hrs in darkness at 15° C. at a relative humidity (RH) of 60-70%.
# On day D, the seedlings are treated with a composition as described in Example 1.a.). Emulsions containing the following doses of isoamyl laurate were tested: 1.35 L/ha (N/4), 2.7 L/ha (N/2), […] (N), 10.8 L/ha (2N) and 16.2 L/ha (3N). Two controls are carried out: a first control using water and a second control using the adjuvant, tested alone, at a dose of 1.8 L/ha, which corresponds to the dose of adjuvant contained in dose 3N of isoamyl laurate. The volume of composition sprayed corresponds to the equivalent of 200 L/ha.
# For the treatment, nozzles are used to spray the different emulsions and to produce a good distribution of the drops over the plants (TeeJet 100015-VS flat spray nozzle used on a Euro-Pulvé laboratory sprayer).
# On D+1, D+3, D+7, the adults and larvae present on each seedling are counted.
# Statistical analysis is carried out using XLSTATS and a variance analysis is carried out using a Newman-Keuls and a Dunnett's test. The Dunnett's tests used post hoc following an ANOVA give a probability of 0.00.
# The seedlings are treated on day D with a composition as described in Example 1.b). An emulsion containing the following dose of 2-ethylhexyl caprate was tested: 16.2 L/ha (3N). […]
# [2] = Trials comparing a concentrate containing isoamyl laurate with a commercial insecticide containing Lambda-cyhalothrin; settings: concentrate containing isoamyl laurate vs commercial insecticide containing Lambda-cyhalothrin
# Excerpt: Preferably, in the concentrates according to the invention, the insecticide and/or arachnicide compound of formula (I) is 3-methylbutyl dodecanoate (isoamyl laurate).
# [3] = system: Ostrinia nubilalis; assay: Efficacy on the European corn borer on corn leaves, spray treatment; assay type: in vivo; settings: dose 6.0 L/ha, composition 1.a, counted on D+3
# Protocol: The test was carried out on corn infected by the European corn borer. Egg clusters from Ostrinia nubilalis are kept under controlled laboratory conditions in order to allow the eggs to develop. The eggs are kept for 14 hrs in the light and at 18° C., and for 10 hrs in the dark at 15° C. at a relative humidity varying from 60 to 70%. After emerging, the larvae at the 1st and 2nd instar stages are used in the experiment. “Zea Mays” corn of the variety DK315 is grown under the following conditions: 14 hrs in the light at 18° C., and 10 hrs in darkness at 15° C. at a relative humidity (RH) of 60-70%. On D-1, 3 corn leaves are taken from the seedlings and placed in ventilated plastic boxes. 10 larvae are then placed onto the corn leaves in each box, the trial being repeated three times. The larvae are kept for 14 hrs in the light at 18° C., and 10 hrs in darkness at 15° C. at a relative humidity (RH) of 60-70%. The leaves are treated on day D with a composition as described in Example 1.a) with a dose of isoamyl laurate equivalent to 6.0 L/ha. For the treatment, nozzles are used to spray the composition in example 1.a) and to produce a good distribution of the drops onto the plants (TeeJet 110015-VS flat spray nozzle used on a Euro-Pulvé laboratory sprayer). […] On D+3, the larvae and adults present in each box are counted. […]
# [4] = system: Pollen beetles Meligethes aeneus, susceptible; assay: Efficacy on pollen beetles, coated glass phial, IRAC method no.11, susceptible strains; assay type: in vivo; settings: after 24 hrs
# Protocol: (§1) The efficacy of isoamyl laurate against pollen beetles has been evaluated according to a protocol based on IRAC (Insecticide Resistance Action Committee) method no.11, version 3, June 2009.
# (§2) Pollen beetles are collected from different locations in infested fields. They are then kept in ventilated plastic boxes, in the bottom of which a dry paper has been placed. A number of oilseed rape leaves as well as 2 to 3 oilseed rape in flower are added as a food source. As it is important that the pollen beetles are not subjected to excessive temperatures, to humid conditions or other sources of stress following collection, they are kept under the following conditions: 14 hrs in the light at 18° C., and 10 hrs in darkness at 15° C. at a relative humidity (RH) of 60-70%.
# (§3) The isoamyl laurate product was solubilized in acetone. Each solution was then placed in a homogeneous manner on the inside of a glass phial 2 cm in diameter and 4 cm in height, until the acetone has completely evaporated. The quantity of insecticide provided by 0.5 mL of acetone solution is calculated in such a way that a unit of area of the phial is covered with the same quantity of insecticide as that carried by the same unit of area of a leaf belonging to a field having undergone a treatment at 200 L/ha.
# (§4) 10 pollen beetles are introduced into each phial, each trial being carried out twice.
# (§5) Mortality is evaluated after 24 hrs.
# [5] = system: Leptinotarsa decemlineata; assay: Efficacy on Colorado potato beetle larvae, leaf soaking, IRAC method no.7; assay type: in vivo; settings: dose 6.0 L/ha, composition 1.a, L4 larvae, mortality after 5 hrs
# Protocol: The efficacy of isoamyl laurate on Colorado potato beetles has been evaluated according to a protocol based on IRAC (Insecticide Resistance Action Committee) method no.7, version 3, June 2009. Eggs from the Colorado potato beetle are collected from fields and placed on the lower (abaxial) surface of potato leaves. After 4 to 15 days, the hatching of the eggs takes place, producing dark red-brown larvae. Potato leaves are treated by soaking for 5 seconds in a composition as described in Example 1.a) at a dose of isoamyl laurate equivalent to 6.0 L/ha. The potato leaves are infested on the abaxial face thereof with 5 Colorado potato beetle larvae at stage L4. Each trial is repeated a second time. Mortality is evaluated after 5 hrs. At a dose of 6.0 L/ha of isoamyl laurate, 10% efficacy is obtained on the Colorado potato beetle larvae.
# [6] = system: Pollen beetles Meligethes aeneus, strains resistant to pyrethroids; assay: Efficacy on pollen beetles, coated glass phial, IRAC method no.11, strains resistant to pyrethroids; assay type: in vivo; settings: after 24 hrs
# Protocol: as §1, §2, §3, §4, §5
# [7] = dose 3N (16.2 L/ha) on D+1, composition with Actirob B adjuvant
compound,measurement,setting,value
CCCCCCCCCC(=O)OCC(CC)CCCC (stereo not shown) [2-ethylhexyl caprate],efficacy,[1]; [7],~55%
"CCCCCCCCCCCCCCCC(=O)OCC(CC)CCCC (stereo not shown) [2-ethylhexyl palmitate, reference compound]",efficacy,[1]; [7],approximately 10%
"CCCCCCCCCCCC(=O)OCCC(C)C [isoamyl laurate, 3-methylbutyl dodecanoate]","toxicity (aquatic toxicity, toxicity in humans through inhalation, irritation of the skin and eyes)",[2],less toxic
same,efficacy against the larvae and adults,[3],19.5%
same,Efficacy (%) Susceptible,[4]; dose 2.0 L/ha,55%
same,Efficacy (%) Susceptible,[4]; dose 4.0 L/ha,90%
same,efficacy (mortality) on larvae,[5],10%
same,Efficacy (%) Strains resistant to pyrethroids,[6]; dose 2.0 L/ha,40%
same,Efficacy (%) Strains resistant to pyrethroids,[6]; dose 4.0 L/ha,75%
same,efficacy,"[1]; dose 3N (16.2 L/ha), composition 1.a with Actirob B adjuvant, FIG. 2",~80%
